Laboratory results published in ChEMBL document CHEMBL1150275, “Pharmacological and pharmacokinetic characterization of 2-piperazine-alpha-isopropyl benzylamine derivatives as melanocortin-4 receptor antagonists” (Bioorg Med Chem, 2008).
Values belong to the compound of their own block, whether it stands above or below them.

Columns and labels:
[1] = system: Caco-2; assay: Apparent permeability across human Caco-2 cells; type: ADME, cell-based
[2] = physchem; details: buffer, pH 7.4
[3] = Cmax in mouse at 5 mg/kg, iv and 10 mg/kg, po; type: ADME, organism-based; details: in vivo
[4] = Drug level in mouse brain at 5 mg/kg, iv after 4 hrs; type: ADME, organism-based; design: dose 5 mg/kg, route intravenous; details: read-out: Drug uptake
[5] = Ratio of drug level in brain to plasma in mouse at 5 mg/kg, iv after 1 hr; type: ADME, organism-based; design: dose 5 mg/kg, route intravenous
[6] = Oral bioavailability in mouse at 10 mg/kg; type: ADME, organism-based; details: in vivo
[7] = Drug level in mouse brain at 5 mg/kg, iv after 1 hr; type: ADME, organism-based; design: dose 5 mg/kg, route intravenous; details: read-out: Drug uptake
[8] = Tmax in mouse at 5 mg/kg, iv and 10 mg/kg, po; type: ADME, organism-based; details: in vivo
[9] = Volume of distribution in mouse at 5 mg/kg, iv and 10 mg/kg, po; type: ADME, organism-based; details: in vivo
[10] = Ratio of drug level in brain to plasma in mouse at 5 mg/kg, iv after 4 hrs; type: ADME, organism-based; design: dose 5 mg/kg, route intravenous
[11] = AUC in mouse at 10 mg/kg, po; type: ADME, organism-based; design: dose 10 mg/kg, route oral; details: plasma
[12] = Drug level in LLC tumor bearing C57BL/6J mouse brain at 20 mg/kg, po twice daily after 24 hrs; type: ADME, organism-based; design: dose 20 mg/kg, route oral
[13] = Drug level in LLC tumor bearing C57BL/6J mouse brain at 20 mg/kg, po twice daily after 2 hrs on day 1 of administration; type: ADME, organism-based; design: dose 20 mg/kg, route oral
[14] = Drug level in LLC tumor bearing C57BL/6J mouse plasma at 20 mg/kg, po twice daily after 24 hrs; type: ADME, organism-based; design: dose 20 mg/kg, route oral
[15] = Drug level in mouse brain at 10 mg/kg, po after 1 hr; type: ADME, organism-based; design: dose 10 mg/kg, route oral
[16] = Cmax in mouse brain at 5 mg/kg, iv and 10 mg/kg, po; type: ADME, organism-based
[17] = system: Brain; assay: AUC in mouse brain at 5 mg/kg, iv and 10 mg/kg, po; type: ADME, organism-based; details: in vivo
[18] = Ratio of Cmax in brain to plasma in mouse at 5 mg/kg, iv and 10 mg/kg, po; type: ADME, organism-based
[19] = Ratio of drug level in brain to plasma in mouse at 10 mg/kg, po after 1 hr; type: ADME, organism-based; design: dose 10 mg/kg, route oral; details: brain and plasma
[20] = Dissociation constant, pKa of the compound; type: physicochemical
[21] = Drug level in LLC tumor bearing C57BL/6J mouse brain at 20 mg/kg, po twice daily after 12 hrs on day 1 of administration; type: ADME, organism-based; design: dose 20 mg/kg, route oral
[22] = Drug level in mouse brain at 10 mg/kg, po after 4 hrs; type: ADME, organism-based; design: dose 10 mg/kg, route oral; details: read-out: Drug uptake
[23] = Ratio of drug level in brain to plasma in mouse at 10 mg/kg, po after 4 hrs; type: ADME, organism-based; design: dose 10 mg/kg, route oral
[24] = Drug level in LLC tumor bearing C57BL/6J mouse brain at 20 mg/kg, po twice daily after 24 hrs on day 4 of administration measured 14 hrs after last dose; type: ADME, organism-based; design: dose 20 mg/kg, route oral
[25] = Ratio of AUC in brain to plasma in mouse at 5 mg/kg, iv and 10 mg/kg, po; type: ADME, organism-based
[26] = system: Brain; assay: Drug level in LLC tumor bearing C57BL/6J mouse brain at 5 mg/kg, po; type: ADME, organism-based; design: dose 5 mg/kg, route oral; details: in vivo
[27] = Drug level in LLC tumor bearing C57BL/6J mouse plasma at 20 mg/kg, po twice daily after 2 hrs on day 1 of administration; type: ADME, organism-based; design: dose 20 mg/kg, route oral
[28] = Drug level in LLC tumor bearing C57BL/6J mouse plasma at 20 mg/kg, po twice daily after 12 hrs on day 1 of administration; type: ADME, organism-based; design: dose 20 mg/kg, route oral
[29] = Tmax in mouse brain at 5 mg/kg, iv and 10 mg/kg, po; type: ADME, organism-based
[30] = Drug level in LLC tumor bearing C57BL/6J mouse plasma at 20 mg/kg, po twice daily after 12 hrs on day 4 of administration; type: ADME, organism-based; design: dose 20 mg/kg, route oral
[31] = system: Brain; assay: AUC in rat brain at 10 mg/kg, po; type: ADME, organism-based; design: dose 10 mg/kg, route oral; details: in vivo
[32] = Drug level in LLC tumor bearing C57BL/6J mouse plasma at 20 mg/kg, po twice daily after 24 hrs on day 4 of administration measured 14 hrs after last dose; type: ADME, organism-based; design: dose 20 mg/kg, route oral
[33] = Drug level in LLC tumor bearing C57BL/6J mouse brain at 20 mg/kg, po twice daily after 12 hrs on day of administration; type: ADME, organism-based; design: dose 20 mg/kg, route oral
[34] = Drug level in LLC tumor bearing C57BL/6J mouse plasma at 20 mg/kg, po twice daily after 2 hrs on day 4 of administration; type: ADME, organism-based; design: dose 20 mg/kg, route oral
[35] = Drug level in LLC tumor bearing C57BL/6J mouse brain at 20 mg/kg, po twice daily after 2 hrs on day 4 of administration; type: ADME, organism-based; design: dose 20 mg/kg, route oral
[36] = Drug level in rat brain at 10 mg/kg, po after 6 hrs; type: ADME, organism-based; design: dose 10 mg/kg, route oral; details: read-out: Drug uptake

Papp [1]: 30 nm/s
logD [2]: 2.5
SMILES: CNCCN[C@H](c1cc(C)ccc1N1CCN(C(=O)[C@H](C)Cc2ccc(Cl)cc2F)CC1)C(C)C

Cmax [3]: 0.632 µg/mL
Papp [1]: 80 nm/s
concentration at 4 h [4]: 42 ng/g
Kp at 1 h [5]: 0.1
bioavailability [6]: 30%
concentration at 1 h [7]: 59 ng/g
Tmax [8]: 120 min
Vd [9]: 3 L/kg
logD [2]: 4
Kp at 4 h [10]: 0.2
AUC [11]: 2.29 µg·h/mL
SMILES: CNCC(=O)N[C@H](c1cc(C)ccc1N1CCN(C(=O)[C@H](C)Cc2ccc(Cl)cc2F)CC1)C(C)C

concentration at 24 h [12]: 11 ng/g
concentration at 2 h [13]: 27 ng/g
concentration at 24 h [14]: 0.14 µg/mL
concentration at 1 h [15]: 19 ng/g
Papp [1]: 410 nm/s
Cmax [16]: 91 ng/g
Kp at 1 h [5]: 0.1
AUC [17]: 367 ng·h/g
Vd [9]: 4.1 L/kg
logD [2]: 3.4
Kp [18]: 0.1
Kp at 1 h [19]: 0.1
pKa [20]: 8.9
concentration at 12 h [21]: 74 ng/g
concentration at 4 h [22]: 18 ng/g
Kp at 4 h [10]: 0.1
Kp at 4 h [23]: 0.1
concentration at 14 h [24]: 4.5 ng/g
Kp [25]: 0.15
Drug uptake [26]: 2 ng/mL
concentration at 2 h [27]: 0.36 µg/mL
concentration at 12 h [28]: 0.43 µg/mL
Tmax [29]: 18 min
concentration at 12 h [30]: 0.405 µg/mL
AUC [31]: 254 ng·h/g
concentration at 14 h [32]: 0.022 µg/mL
concentration at 12 h [33]: 25 ng/g
concentration at 2 h [34]: 0.46 µg/mL
concentration at 2 h [35]: 36 ng/g
concentration at 6 h [36]: 41 ng/g
SMILES: Cc1ccc(N2CCN(C(=O)[C@H](C)Cc3ccc(Cl)cc3)CC2)c([C@@H](NC(=O)CCN(C)C)C(C)C)c1

Cmax [3]: 0.055 µg/mL
concentration at 4 h [4]: 102 ng/g
Kp at 1 h [5]: 1.3
bioavailability [6]: 8%
concentration at 1 h [7]: 334 ng/g
Tmax [8]: 30 min
Vd [9]: 11 L/kg
logD [2]: 3.5
Kp at 4 h [10]: 1.3
AUC [11]: 0.208 µg·h/mL
SMILES: CNCC(=O)N[C@H](c1cc(Cl)ccc1N1CCN(C(=O)[C@H](C)Cc2ccc(Cl)cc2OC)CC1)C(C)C

The remaining lines, values behind:

SMILES: Cc1ccc(N2CCN(C(=O)[C@H](C)Cc3ccc(Cl)cc3)CC2)c([C@@H](NC(=O)CCN)C(C)C)c1
Papp [1]: 30 nm/s
logD [2]: 2.4

SMILES: Cc1ccc(N2CCN(C(=O)[C@H](C)Cc3ccc(Cl)cc3C)CC2)c([C@@H](NC(=O)CCN(C)C)C(C)C)c1
Papp [1]: 160 nm/s
logD [2]: 4

SMILES: CNCCC(=O)N[C@H](c1cc(C)ccc1N1CCN(C(=O)[C@H](C)Cc2ccc(Cl)cc2)CC1)C(C)C
Papp [1]: 120 nm/s
logD [2]: 2.7

SMILES: COc1cc(Cl)ccc1C[C@@H](C)C(=O)N1CCN(c2ccc(Cl)cc2[C@@H](NC(=O)[C@@H](C)N)C(C)C)CC1
Cmax [3]: 0.143 µg/mL
Papp [1]: 30 nm/s
concentration at 4 h [4]: 59 ng/g
Kp at 1 h [5]: 0.4
bioavailability [6]: 16%
concentration at 1 h [7]: 95 ng/g
Tmax [8]: 15 min
Vd [9]: 16 L/kg
logD [2]: 4.5
Kp at 4 h [10]: 1
AUC [11]: 0.397 µg·h/mL
